Results reported in patent US20130303500A1, “COMPOUNDS AND METHODS FOR TREATING NEOPLASIA” (Medexis S.A., priority 2010, published 2013).

Tests used:
A549 (Lung) cells = test: Sulforhodamine B (SRB) assay, A549; assay type: cell-based; conditions: Homo sapiens; for CC50: A549, 48 h, read-out: LC50; for GI50 / IC (TGI): A549 Lung, SRB, 48 h
Experimental: (§1) Sulforhodamine B (SRB) assays were performed according to standard National Cancer Institute Guidelines. Briefly, human tumor cells from different cancer panels were seeded into 96 well plates in […] (plating densities ranging from 5-40,000 cells/well depending on the doubling time of individual cell lines) in serum-containing media for twenty-four hours prior to the addition of the compounds to be assayed. After 24 hours, one plate of each cell line was fixed in situ with trichloroacetic acid (TCA). The fixed slides were used to determine the cell population for each cell line at the time of drug addition (Tz). Each compound to be tested was solubilized in dimethyl sulfoxide (DMSO) and the desired concentration was then added to the medium and diluted serially 1:10 to provide a total of five or ten drug concentrations plus control (in a final volume of 200 μL). The starting dose before any dilution was 100 uM for all compounds.
(§2) Following drug addition, each culture was incubated for forty-eight hours. The assay was terminated with the addition of cold TCA. The supernatant was discarded, and the plates were washed with tap water and air dried. SRB solution was then added to each well. After staining, the bound stain was solubilized and the absorbance was read on an automated plate reader at a wavelength of 515 nm.
(§3) Using the absorbance measurements [time zero, (Tz), control growth, (C), and test growth in the presence of drug at the ten concentration levels (Ti)], the percentage growth was calculated at each of the drug concentrations levels. Percentage growth inhibition was calculated as:
(§4) [(Ti−Tz)/(C−Tz)]×100 for concentrations for which Ti>/=Tz
(§5) [(Ti−Tz)/Tz]×100 for concentrations for which Ti<Tz.
(§6) Three dose response parameters were calculated for each experimental agent. Growth inhibition of 50% (GI50) was calculated from [(Ti−Tz)/(C−Tz)]×100=50, which was the drug concentration resulting in a 50% reduction in the net protein increase (as measured by SRB staining) in control cells during the drug. The drug concentration resulting in total growth inhibition (TGI) was calculated from Ti=Tz. The LC50 (concentration of drug resulting in a 50% reduction in the measured protein at the end of the drug treatment as compared to that at the beginning) indicating a net loss of cells following treatment was calculated from [(Ti−Tz)/Tz]×100=−50.
(§7) Values were calculated for each of these three parameters when the level of activity was reached; however, if the effect was not reached or was exceeded, the value for that parameter was expressed as greater or less than the maximum or minimum concentration tested.

DU145 (Prostate) cells = test: MTT cell proliferation/viability assay, DU145; assay type: cell-based; conditions: Homo sapiens, DU-145, 72 h
Experimental: (§8) Cell proliferation/viability was assessed by the MTT [3-(4,5-dimethylthiazol-2-yl)-2,5-diphenyltetrazolium bromide] assay, which is commercially available (Sigma, St. Louis, Mo.). Cells were cultured in 96-well plates for twenty-four hours (7-10.000 cells/well) and incubated with various concentrations of the different compounds—as indicated in the Figures—in serum-containing medium (or left untreated) for seventy-two hours. At the end of incubation, the medium was aspirated and MTT dissolved in RPMI 1640 w/o phenol red was added to each well to a final concentration of 0.25 mg/ml. After four hours incubation in the dark (37° C., 5% CO2) the supernatant was discarded. The converted dye (blue formazan crystals) was solubilized by adding 200 μl dimethylsulfoxide to each well. Absorbance was measured at 550 nm with reference at 655 nm using a spectrophotometer with the respective filters. All assays were performed in triplicate.
(§9) The effect of the different compounds on the proliferation and viability of two cancer cell lines (DU145/prostate and CAKI/renal) was tested through quantitative (4,5-dimethylthiazol-2-yl)-2,5-diphenyltetrazolium bromide (MTT) assays.

[1] = molecular target: Na+/K+-ATPase (Adenosine 5′-Triphosphatase isolated from porcine cerebral cortex); test: Na+/K+-ATPase inhibitory activity, colorimetric Adenosine 5′-Triphosphatase Enzymatic Assay (Sigma); assay type: biochemical; conditions: enzyme from porcine cerebral cortex, 0.5 units/ml
Experimental: The compound inhibitory effect on ATPase activity was assessed in vitro using the colorimetric Adenosine 5′-Triphosphatase Enzymatic Assay of Sigma (St. Louis, Mo.) according to the manufacturer's instructions. This assay utilizes Adenosine 5′-Triphosphatase isolated from porcine cerebral cortex. Each reaction was performed in a final volume of […] using 0.5 units/ml enzyme in the presence of the different inhibitors. […] IC50 values were determined using the Origin® program software (OriginLab, Northampton, Mass.).

CAKI (Renal) cells = test: MTT cell proliferation/viability assay, CAKI; assay type: cell-based; conditions: 72 h
Experimental: as §8, §9

[2] = tested on: 7 different cell lines (lung, ovarian, prostate, CNS, breast, colon); test: SRB assays across 7 cell lines; assay type: cell-based, human; conditions: for viability and/or cell proliferation of cell lines: cell lines representative of lung, breast, CNS, prostate, ovarian, colon and renal neoplasias
Experimental: as §1, §2, §3, §4, §5, §6, §7
SRB provides a colorimetric measure of a compound's anti-cancer activity. SRB assays were performed with compounds of the invention in 7 different cell lines, which represent six different tumor panels (lung, ovarian, prostate, CNS, breast, colon).

PC3 (Prostate) cells = test: Sulforhodamine B (SRB) assay, PC3; assay type: cell-based; conditions: Homo sapiens, Prostate cell, 48 h; for CC50: read-out: LC50; for GI50 / IC (TGI): PC3 Prostate, SRB
Experimental: as §1, §2, §3, §4, §5, §6, §7

SF268 (CNS) cells = test: Sulforhodamine B (SRB) assay, SF268; assay type: cell-based; conditions: Homo sapiens; for CC50: SF-268, 48 h, read-out: LC50; for GI50 / IC (TGI): SF-268, SF268 CNS, SRB, 48 h
Experimental: as §1, §2, §3, §4, §5, §6, §7

Structure (SMILES) | CC50 (A549 (Lung) cells) [µM] | GI50 (A549 (Lung) cells) [µM] | IC (TGI) (A549 (Lung) cells) [µM] | IC50 (DU145 (Prostate) cells) [µM] | IC50 [1] [µM] | IC50 (CAKI (Renal) cells) [µM] | GI50 ([2]; Homo sapiens, SRB, average over cell lines) [µM] | viability and/or cell proliferation of cell lines [2] | CC50 (PC3 (Prostate) cells) [µM] | GI50 (PC3 (Prostate) cells) [µM] | IC (TGI) (PC3 (Prostate) cells) [µM] | CC50 (SF268 (CNS) cells) [µM] | GI50 (SF268 (CNS) cells) [µM] | IC (TGI) (SF268 (CNS) cells) [µM] | GI50 action in most cell lines ([2]; SRB, most cell lines)
C[C@]12CCC(=NOC3CCNC3)CC1C(=O)CC1C2CC[C@]2(C)C(=O)C(F)CC12 (stereo partly drawn) [Compound 4, (10R,13S,16R)-16a-fluoro-10,13-dimethyl-3-((S)-pyrrolidin-3-yloxyimino)-tetradecahydro-14H-cyclopenta[a]phenanthrene-6,17-dione] | 1.01 | 0.43 | 0.723 | 2.7 | 0.194 | 5 | < 1 | reduced the viability and/or cell proliferation | 8.04 | 0.731 | 3.24 | 6.98 | 0.277 | 0.782 | 
CC(=O)OC[C@]12CCC(=NO[C@@H]3CCNC3)C[C@@H]1CCC1C2CC[C@]2(C)C(=O)CCC12 (stereo partly drawn) [Compound 48, ((5S,10R,13S)-13-methyl-17-oxo-3-((R)-pyrrolidin-3-yloxyimino)-hexadecahydro-1H-cyclopenta[a]phenanthren-10-yl)methyl acetate] | 102 | 6.31 | 38300 | 11.6 | 2.88 | 41.3 |  | reduced the viability and/or cell proliferation | > 100 | 8.77 | > 100 | 101 | 11.5 | 56400 | single-digit micromolar
